Data reported in patent publication US5677419A, “Cyclic vasoactive peptide analogs” (Hoffmann-La Roche Inc., priority 1994, dated 1997).
pEC50: −log10 of the molar value. Where a SMILES comes first, the peptide text is derived from it. Bridges are numbered along the chain shown (N, C = ends). [ ]: non-standard residue; d: D form. Tyr(3-F) = N[C@@H](Cc1ccc(O)c(F)c1)C(=O)O; Tyr(3-OMe) = COc1cc(C[C@H](N)C(=O)O)ccc1O; Phe(4-NH2) = Nc1ccc(C[C@H](N)C(=O)O)cc1; Phe(4-F) = N[C@@H](Cc1ccc(F)cc1)C(=O)O; Nle = CCCC[C@H](N)C(=O)O

Tests used:
[1] = tested on: guinea pig tracheal smooth muscle; assay: Tracheal relaxant activity of VIP analogs on isolated guinea pig tracheal rings; format: cell-based; conditions: cumulative concentration response, relaxation as % of maximum response to VIP (10^-6 M=100%), three tissues pooled, linear regression
Outline: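 Male guinea pig tracheal rings under 1.5 g resting tension in Krebs at 37° C, 95% O2/5% CO2, isometric tension. Cumulative concentration-response curves; relaxation as % of response to 10^-6 M VIP added at end; three tissues pooled, EC50 by linear regression.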

guinea pigs = assay: In vivo bronchodilator activity by tracheal instillation against histamine challenge; set-up: species or system guinea pig; conditions: anesthetized male guinea pigs, inhibition of histamine (i.v.)-induced rise in tracheal pressure
Outline: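 Urethane-anaesthetised male Hartley guinea pigs (400-600 g) received compound in water by intratracheal instillation, then were paralysed, ventilated and challenged with histamine […] i.v. Tracheal pressure change gave % inhibition (≥3 animals/group); ED50 from log dose-response; duration as time until inhibition fell to 40%.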

Compound | pEC50 [1] | Bronchodilator activity of VIP analogs in guinea pigs, ED50 (guinea pigs) [μg]
CCCC[C@H](NC(=O)[C@H](CCC(N)=O)NC(=O)[C@H](CCCCN)NC(=O)[C@H](CCCNC(=N)N)NC(=O)[C@H](CC(C)C)NC(=O)[C@H](CCCCN)NC(=O)[C@@H](NC(=O)[C@H](Cc1ccc(OC)cc1)NC(=O)[C@H](CC(N)=O)NC(=O)[C@H](CCC(=O)O)NC(=O)[C@@H](NC(=O)[C@H](Cc1ccccc1)NC(=O)[C@@H](NC(=O)[C@H](C)NC(=O)[C@H](CC(=O)O)NC(=O)[C@H](CO)NC(=O)[C@H](Cc1c[nH]cn1)NC(C)=O)C(C)C)[C@@H](C)O)[C@@H](C)O)C(=O)N[C@@H](C)C(=O)N[C@@H](C)C(=O)N[C@@H](CCCCN)C(=O)N[C@H]1CCCCNC(=O)C[C@@H](C(=O)N[C@@H](CC(C)C)C(=O)N[C@@H](CCCCN)C(=O)N[C@@H](CCCCN)C(N)=O)NC(=O)[C@H](CC(N)=O)NC(=O)[C@H](CC(C)C)NC(=O)[C@H](Cc2ccc(O)cc2)NC1=O [SEQ ID NO:48, Ac-[Glu^8,O-Me-Tyr^10,Lys^12,Nle^17,Ala^19,Asp^25,Leu^26, Lys^27,28]-VIP cyclo (Lys^21 →Asp^25)] (Ac-HSDAVFTENY(Me)TKLRKQ[Nle]AAKKYLNDLKK-NH2; lactam 21-25) | 9.39 | 0.094
CCCC[C@H](NC(=O)[C@H](CCC(N)=O)NC(=O)[C@H](CCCCN)NC(=O)[C@H](CCCNC(=N)N)NC(=O)[C@H](CC(C)C)NC(=O)[C@H](CCCCN)NC(=O)[C@@H](NC(=O)[C@H](Cc1ccc(O)cc1)NC(=O)[C@H](CC(N)=O)NC(=O)[C@H](CCC(=O)O)NC(=O)[C@@H](NC(=O)[C@H](Cc1ccccc1)NC(=O)[C@@H](NC(=O)[C@H](C)NC(=O)[C@H](CC(=O)O)NC(=O)[C@H](C)NC(=O)[C@H](Cc1c[nH]cn1)NC(C)=O)C(C)C)[C@@H](C)O)[C@@H](C)O)C(=O)N[C@@H](C)C(=O)N[C@@H](C)C(=O)N[C@@H](CCCCN)C(=O)N[C@H]1CCCCNC(=O)C[C@@H](C(=O)N[C@@H](CC(C)C)C(=O)N[C@@H](CCCCN)C(=O)N[C@@H](CCCCN)C(=O)NCC(=O)NCC(=O)N[C@H](C(N)=O)[C@@H](C)O)NC(=O)[C@H](CC(N)=O)NC(=O)[C@H](CC(C)C)NC(=O)[C@H](Cc2ccc(O)cc2)NC1=O [SEQ ID NO:51, Ac-[Ala^2,Glu^8,Lys^12,Nle^17,Ala^19,Asp^25,Leu^26,Lys^27,28,Gly^29,30,Thr^31]-VIP cyclo (Lys^21 →Asp^25)] (Ac-HADAVFTENYTKLRKQ[Nle]AAKKYLNDLKKGGT-NH2; lactam 21-25) | 9.04 | 0.1
CCCC[C@H](NC(=O)[C@H](CCC(N)=O)NC(=O)[C@H](CCCCN)NC(=O)[C@H](CCCNC(=N)N)NC(=O)[C@H](CC(C)C)NC(=O)[C@H](CCCCN)NC(=O)[C@@H](NC(=O)[C@H](Cc1ccc(O)cc1)NC(=O)[C@H](CC(N)=O)NC(=O)[C@H](CCC(=O)O)NC(=O)[C@@H](NC(=O)[C@H](Cc1ccccc1)NC(=O)[C@@H](NC(=O)[C@H](C)NC(=O)[C@H](CC(=O)O)NC(=O)[C@H](CO)NC(=O)[C@H](Cc1c[nH]cn1)NC(C)=O)C(C)C)[C@@H](C)O)[C@@H](C)O)C(=O)N[C@@H](C)C(=O)N[C@@H](C)C(=O)N[C@@H](CCCCN)C(=O)N[C@H]1CCCCNC(=O)C[C@@H](C(=O)N[C@@H](CC(C)C)C(=O)N[C@@H](CCCCN)C(=O)N[C@@H](CCCCN)C(=O)NCC(=O)NCC(=O)N[C@H](C(N)=O)[C@@H](C)O)NC(=O)[C@H](CC(N)=O)NC(=O)[C@H](CC(C)C)NC(=O)[C@H](Cc2ccc(O)cc2)NC1=O [SEQ ID NO:52, Ac-[Glu^8,Lys^12,Nle^17,Ala^19,Asp^25,Leu^26,Lys^27,28,Gly^29,30,Thr^31]-VIP cyclo (Lys^21 →Asp^25)] (Ac-HSDAVFTENYTKLRKQ[Nle]AAKKYLNDLKKGGT-NH2; lactam 21-25) | 9.46 | 0.1
CCCC[C@H](NC(=O)[C@H](CCC(N)=O)NC(=O)[C@H](CCCCN)NC(=O)[C@H](CCCNC(=N)N)NC(=O)[C@H](CC(C)C)NC(=O)[C@H](CCCCN)NC(=O)[C@@H](NC(=O)[C@H](Cc1ccc(O)cc1)NC(=O)[C@H](CC(N)=O)NC(=O)[C@H](CCC(=O)O)NC(=O)[C@@H](NC(=O)[C@H](Cc1ccccc1)NC(=O)[C@@H](NC(=O)[C@H](C)NC(=O)[C@H](CC(=O)O)NC(=O)[C@H](C)NC(=O)[C@H](Cc1c[nH]cn1)NC(C)=O)C(C)C)[C@@H](C)O)[C@@H](C)O)C(=O)N[C@@H](C)C(=O)N[C@@H](C)C(=O)N[C@@H](CCCCN)C(=O)N[C@H]1CCCCNC(=O)C[C@@H](C(=O)N[C@@H](CC(C)C)C(=O)N[C@@H](CCCCN)C(=O)N[C@@H](CCCCN)C(N)=O)NC(=O)[C@H](CC(N)=O)NC(=O)[C@H](CC(C)C)NC(=O)[C@H](Cc2ccc(O)cc2)NC1=O [SEQ ID NO:53, Ac-[Ala^2,Glu^8,Lys^12,Nle^17,Ala^19,Asp^25,Leu^26,Lys^27,28]-VIP cyclo (Lys^21 →Asp^25)] (Ac-HADAVFTENYTKLRKQ[Nle]AAKKYLNDLKK-NH2; lactam 21-25) | 9.11 | 0.14
CCCC[C@H](NC(=O)[C@H](CCC(N)=O)NC(=O)[C@H](CCCCN)NC(=O)[C@H](CCCNC(=N)N)NC(=O)[C@H](CC(C)C)NC(=O)[C@H](CCCCN)NC(=O)[C@@H](NC(=O)[C@H](Cc1ccc(N)cc1)NC(=O)[C@H](CC(N)=O)NC(=O)[C@H](CC(=O)O)NC(=O)[C@@H](NC(=O)[C@H](Cc1ccccc1)NC(=O)[C@@H](NC(=O)[C@H](C)NC(=O)[C@H](CC(=O)O)NC(=O)[C@H](CO)NC(=O)[C@H](Cc1c[nH]cn1)NC(C)=O)C(C)C)[C@@H](C)O)[C@@H](C)O)C(=O)N[C@@H](C)C(=O)N[C@@H](C)C(=O)N[C@@H](CCCCN)C(=O)N[C@H]1CCCCNC(=O)C[C@@H](C(=O)N[C@H](C(=O)N[C@@H](CC(C)C)C(=O)N[C@H](C(N)=O)[C@@H](C)O)C(C)C)NC(=O)[C@H](CC(N)=O)NC(=O)[C@H](CC(C)C)NC(=O)[C@H](Cc2ccc(O)cc2)NC1=O [SEQ ID NO:54, Ac-[p-NH2 -Phe^10,Lys^12,Nle^17,Ala^19,Asp^25,Val^26,Thr^28]-VIP cyclo (Lys^21 →Asp^25)] (Ac-HSDAVFTDN[Phe(4-NH2)]TKLRKQ[Nle]AAKKYLNDVLT-NH2; lactam 21-25) | 9.02 | 0.35
CCCC[C@H](NC(=O)[C@H](CCC(N)=O)NC(=O)[C@H](CCCCN)NC(=O)[C@H](CCCNC(=N)N)NC(=O)[C@H](CC(C)C)NC(=O)[C@H](CCCCN)NC(=O)[C@@H](NC(=O)[C@H](Cc1ccc(O)cc1)NC(=O)[C@H](CC(N)=O)NC(=O)[C@H](CC(=O)O)NC(=O)[C@@H](NC(=O)[C@H](Cc1ccccc1)NC(=O)[C@@H](NC(=O)[C@H](C)NC(=O)[C@H](CC(=O)O)NC(=O)[C@H](CO)NC(=O)[C@H](Cc1c[nH]cn1)NC(C)=O)C(C)C)[C@@H](C)O)[C@@H](C)O)C(=O)N[C@@H](C)C(=O)N[C@@H](C)C(=O)N[C@@H](CCCCN)C(=O)N[C@H]1CCCCNC(=O)C[C@@H](C(=O)N[C@H](C(=O)N[C@@H](CC(C)C)C(=O)N[C@H](C(N)=O)[C@@H](C)O)C(C)C)NC(=O)[C@H](CC(N)=O)NC(=O)[C@H](CC(C)C)NC(=O)[C@H](Cc2ccc(O)c(F)c2)NC1=O [SEQ ID NO:56, Ac-[Lys^12,Nle^17,Ala^19,m-F-L-Tyr^22,Asp^25,Val^26,Thr^28]-VIP cyclo (Lys^21 →Asp^25)] (Ac-HSDAVFTDNYTKLRKQ[Nle]AAKK[Tyr(3-F)]LNDVLT-NH2; lactam 21-25) | 9.28 | 7.2

Continued by rising pEC50 [1], values first:

pEC50 [1] | Compound | Bronchodilator activity of VIP analogs in guinea pigs, ED50 (guinea pigs) [μg]
9.41 | CCCC[C@H](NC(=O)[C@H](CCC(N)=O)NC(=O)[C@H](CCCCN)NC(=O)[C@H](CCCNC(=N)N)NC(=O)[C@H](CC(C)C)NC(=O)[C@H](CCCCN)NC(=O)[C@@H](NC(=O)[C@H](Cc1ccc(O)cc1)NC(=O)[C@H](CC(N)=O)NC(=O)[C@H](CC(=O)O)NC(=O)[C@@H](NC(=O)[C@H](Cc1ccc(F)cc1)NC(=O)[C@@H](NC(=O)[C@H](C)NC(=O)[C@H](CC(=O)O)NC(=O)[C@H](CO)NC(=O)[C@H](Cc1c[nH]cn1)NC(C)=O)C(C)C)[C@@H](C)O)[C@@H](C)O)C(=O)N[C@@H](C)C(=O)N[C@@H](C)C(=O)N[C@@H](CCCCN)C(=O)N[C@H]1CCCCNC(=O)C[C@@H](C(=O)N[C@H](C(=O)N[C@@H](CC(C)C)C(=O)N[C@H](C(N)=O)[C@@H](C)O)C(C)C)NC(=O)[C@H](CC(N)=O)NC(=O)[C@H](CC(C)C)NC(=O)[C@H](Cc2ccc(O)cc2)NC1=O [SEQ ID NO:49, Ac-[p-F-Phe^6,Lys^12,Nle^17,Ala^19,Asp^25,Val^26,Thr^28]-VIP cyclo (Lys^21 →Asp^25)] (Ac-HSDAV[Phe(4-F)]TDNYTKLRKQ[Nle]AAKKYLNDVLT-NH2; lactam 21-25) | 0.26
9.51 | CCCC[C@H](NC(=O)[C@H](CCC(N)=O)NC(=O)[C@H](CCCCN)NC(=O)[C@H](CCCNC(=N)N)NC(=O)[C@H](CC(C)C)NC(=O)[C@H](CCCCN)NC(=O)[C@@H](NC(=O)[C@H](Cc1ccc(O)cc1)NC(=O)[C@H](CC(N)=O)NC(=O)[C@H](CC(=O)O)NC(=O)[C@@H](NC(=O)[C@H](Cc1ccccc1)NC(=O)[C@@H](NC(=O)[C@H](C)NC(=O)[C@H](CC(=O)O)NC(=O)[C@H](CO)NC(=O)[C@H](Cc1c[nH]cn1)NC(C)=O)C(C)C)[C@@H](C)O)[C@@H](C)O)C(=O)N[C@@H](C)C(=O)N[C@@H](C)C(=O)N[C@@H](CCCCN)C(=O)N[C@H]1CCCCNC(=O)C[C@@H](C(=O)N[C@H](C(=O)N[C@@H](CC(C)C)C(=O)N[C@H](C(N)=O)[C@@H](C)O)C(C)C)NC(=O)[C@H](CC(N)=O)NC(=O)[C@H](CC(C)C)NC(=O)[C@H](Cc2ccc(O)c(OC)c2)NC1=O [SEQ ID NO:55, Ac-[Lys^12,Nle^17,Ala^19,m-OCH3 -Tyr^22,Asp^25,Val^26,Thr^28]-VIP cyclo (Lys^21 →Asp^25)] (Ac-HSDAVFTDNYTKLRKQ[Nle]AAKK[Tyr(3-OMe)]LNDVLT-NH2; lactam 21-25) | 0.14
